Here are results for eleven compounds from patent publication US7951772B2, “Tumor-activated prodrug compounds and treatment” (La Region Wallonne, priority 1994, dated 2011).

Series [1] deals with conditioned medium from MCF7/6 mammary carcinoma cells.
The subject of series [2] is female NMRI mice. The experiment in a line: In vivo acute toxicity, intraperitoneal route, 5 consecutive days. Also on record: species or system mouse. Conditions: i.p. on 5 consecutive days. Here is the method:
(§1) In the in vivo study of the acute toxicity of a medicinal product, determination of the median lethal dose (lethal dose for 50% of the animals or LD50) occupies an important place. […] The LD50 is a simple test in which increasing amounts of the test product are administered intravenously (i.v.) in a single injection and intraperitoneally (i.p.) in 5 injections, one injection daily for 5 consecutive days. The mortality of the animals is monitored as a function of time. At the end of the observation period, usually 30 days, the value of the LD50 is obtained by linear regression of the percentage mortality (on a probit scale) as a function of the logarithm of the dose administered (O. K. Chan and A. W. Hayes, Principles and methods for acute toxicity and eye irritancy, in Principles and methods of toxicology, Second edition. Ed. by A. W. Hayes, Raven Press, New York, USA (1989), pp. 169-220; D. Deprez-De Campeneere and A. Trouet. DNA-Anthracycline Complexes. I. Toxicity in mice and chemotherapeutic activity against L1210 Leukaemia off Daunorubicin-DNA and Adriamycin-DNA, Eur. J. Cancer, 16 (1980), pp. 981-986; H. E. Skipper, L. H. Schmidt, A. Goldin and J. M. Venditti. A manual on quantitative drug evaluation in experimental tumor systems, Cancer Chemother. Rep. 17 (1.962), pp. 1-178).
(§2) The acute toxicity of these two drugs was studied via the i.v. and i.p. routes on a single strain of mouse. Female NMRI mice (nonconsanguineous SPF-Han, approximately 5 weeks old and of mean weight 14.6 grams, supplied by IFFA-CREDO Belgium) remained in quarantine for one week.
(§3) Injections were performed systematically in the morning (single injection into the caudal vein for the i.v. route and injections on 5 consecutive days into the peritoneum for the i.p. route), using 1.0 ml syringes and sterile 30 G (i.v.) and 27 G (i.p) needles. All handling of animals was performed with gloves, and maintenance of the animals was performed systematically every week.
(§4) DNR was injected i.v. at doses of 10, 15, 20, 25, 30 and 35 mg/kg and i.p. at doses of 2.0; 2.5; 3.0 and 3.5 mg/kg.
(§5) The concentrations of the solutions were verified by spectrophotometry.
(§6) From the day of injection (DO) onwards, the mice were monitored clinically, with a daily record of dead mice. The weight of the mice was measured almost every day. The observation period was extended beyond one month so that the signs of late toxicity could be spotted more readily. At the end of the study, the surviving mice were sacrificed, according to the standards pertaining to animal experiments (D. B. McGregor. Ethics in experiments on animals, in Experiments in toxicology, First edition. Ed. by D. Anderson and D. M. Conning. The Royal Society of Chemistry and The Universities Press. Belfast, Ireland (1988), pp. 512-522).

Series [3] relates to MRC5 fibroblast cells. The series is described as follows: Cytotoxicity with respect to MRC5 normal cells (72 h, Bradford protein). The settings on record: for IC50: Homo sapiens.
Experimental: (§7) After 72 hours, the cells are incubated for 48 hours in the absence of anthracycline, and the cytotoxicity is determined by measuring the cellular proteins by Bradford's technique. […] The experimental points are adjusted to a sigmoid curve which enables the point of inflection, corresponding to the dose at which half of the cells survive (IC50), to be calculated.
(§8) After 72 hours, the cells are incubated for 48 hours in the absence of the anthracycline, and the cytotoxicity is determined by measuring the cellular proteins by Bradford's technique. […] The experimental points are adjusted to a sigmoid curve which enables the point of inflection, corresponding to the dose at which half of the cells survive (IC50), to be calculated.
The subject of series [4] is female NMRI mice. The series is described as follows: In vivo acute toxicity, intravenous route. Also noted: species or system mouse. How it is done: as §1, §2, §3, §4, §5, §6
The test system of series [5] is MCF7/6 human mammary carcinoma cells. The series is described as follows: Cytotoxicity with respect to MCF7/6 tumor cells (72 h, Bradford protein). The settings on record: for IC50: Homo sapiens.
Experimental: as §7, §8
Series [6] concerns MRC5 fibroblast cells. The experiment in a line: Accumulation in MRC5 normal fibroblast cells (HPLC of cell extracts). Conditions: for Accumulation after 6 h, DOX / Accumulation after 6 h, Leu-DOX: 10 μg eq. DOX/ml.
Experimental: At various times, the accumulation of the prodrugs and of their fluorescent metabolites was determined by HPLC after extraction of the products at basic pH according to a method developed in the laboratory. Accumulations, expressed in μg/mg of cellular proteins, were compared with those of DNR and of L-Leu-DNR. The metabolites were identified by determining the retention times of reference products synthesized in the laboratory.
(§9) After various times, the accumulation of the prodrugs and of their fluorescent metabolites was determined by HPLC after extraction of the products at basic pH according to a method developed in the laboratory. Accumulations, expressed in μg/mg of cellular proteins, were compared with those of DOX and of L-Leu-DOX. The metabolites were identified by determining the retention times of reference products synthesized in the laboratory.
In series [7] the test system is MCF7/6 human mammary carcinoma cells. The experiment in a line: Accumulation in MCF7/6 tumor cells (HPLC of cell extracts).
Experimental: After various times, the accumulation of the prodrugs and of their fluorescent metabolites were determined by HPLC after extraction of the products at basic pH according to a method developed in the laboratory. Accumulations, expressed in μg/mg of cellular proteins, were compared with those of DNR and of DOX as well as with those of L-Leu-DNR and L-Leu-DOX. The metabolites were identified by determining the retention times of reference products synthesized in the laboratory.
as §9
In series [8] the test system is conditioned medium from MCF7/6 mammary carcinoma cells. The experiment in a line: Degradation in conditioned medium from MCF7/6 mammary carcinoma cells (HPLC). The settings on record: β-Ala-Leu-Ala-Leu-DOX incubated at 37 C in MCF7/6 conditioned medium concentrated 20 times, share of each species.

In brackets after ≈: the same amount, converted by molar mass. Several values for one entry are separate records, joined by “and”; a condition that tells them apart may be missing. Identical values can stand only once. Like-named read-outs stand apart in the source and are kept apart here. Square brackets hold non-standard residues; d marks the D form. Peptide text beside a SMILES is read from it. * marks the point of attachment. X1 = COc1cccc2c1C(=O)c1c(O)c3c(c(O)c1C2=O)CC(O)(C(=O)CO)CC3OC1CC(N*)C(O)C(C)O1; pGlu = O=C1CC[CH](C(=O)O)N1

As to `COc1cccc2c1C(=O)c1c(O)c3c(c(O)c1C2=O)CC(O)(C(C)=O)CC3OC1CC(NC(=O)C(CC(C)C)NC(=O)C(C)NC(=O)C(CC(C)C)NC(=O)C(C)NC(=O)C(N)CC(C)C)C(O)C(C)O1` [D-Leu-L-Ala-L-Leu-L-Ala-L-Leu-DNR], in series [1], the “Hydrolysis, MCF-7/6 Conditioned Medium” value is recorded as “+”.
Regarding `COc1cccc2c1C(=O)c1c(O)c3c(c(O)c1C2=O)C[C@@](O)(C(C)=O)C[C@@H]3O[C@H]1C[C@H](N)[C@H](O)[C@H](C)O1` [DNR, daunorubicin], the “day on which no mouse is surviving” value is 29 days in the series with female NMRI mice [2] (2.0 mg/kg), 19 days with female NMRI mice [2] (3.0 mg/kg) and 12 days with female NMRI mice [2] (3.5 mg/kg). Also, the “mice dead out of 7 at first mortality” value in the series with female NMRI mice [2] (2.0 mg/kg, day 11) is given as 1; with female NMRI mice [2] (2.5 mg/kg, day 11), 2; with female NMRI mice [2] (3.0 mg/kg, day 9), 2; in the series on female NMRI mice [2] (3.5 mg/kg, day 7), 1; in the series on female NMRI mice [4] (single i.v., 30 mg/kg, day 7) it was 1; in the series with female NMRI mice [4] (single i.v., 35 mg/kg, day 6), 2. Further, the “mice surviving on day 43” value in the series on female NMRI mice [2] (2.5 mg/kg) is reported as “one”. For the same compound, the mortality from day came to 11 days in the series on female NMRI mice [2] (dose of 2.0 mg/kg), 11 days with female NMRI mice [2] (dose of 2.5 mg/kg), 9 days with female NMRI mice [2] (dose of 3.0 mg/kg) and 7 days with female NMRI mice [2] (dose of 3.5 mg/kg). In addition, in the series on female NMRI mice [2] (irrespective of the dose (2.0-3.5 mg/kg)), the “weight loss, % of the initial weight” value was 30%. For the same compound, the IC50 in the series on MRC5 fibroblast cells [3] (MRC5) is 0.01 ± 0.006 µg/mL (≈ 0.019 µM); in series [5] (MCF7/6), 0.09 ± 0.004 µg/mL (≈ 0.171 µM). The mice dying with female NMRI mice [4] (single i.v., 25 mg/kg, groups of 7, days 12 to 42) amounted to 6. Further, the “mortality begins on day” value with female NMRI mice [4] (single i.v., 30 mg/kg) amounted to 7 days; in the series on female NMRI mice [4] (single i.v., 35 mg/kg), 6 days. Also, the mortality entry in the series with female NMRI mice [4] (single i.v., 10, 15 and 20 mg/kg) was “no mortality”. For the same compound, in the series with female NMRI mice [4] (single i.v., 10-35 mg/kg), the “day of maximal mean weight loss” value turned out to be 7 days. Besides, the “weight recovery of surviving mice” value in the series with female NMRI mice [4] (single i.v., 30 and 35 mg/kg, 30 days after injection) is recorded as “do not recover their initial weight”. Moreover, the accumulation plateau with MRC5 fibroblast cells [6] (MRC5 cells, 10 μg/ml, after 6 hours) is ~76 μg/mg of cellular proteins. The “Intracellular concentration, Starting material” value with MRC5 fibroblast cells [6] (MRC5 cells, 6 hours of incubation, 10 μg eq. DNR/ml) worked out at 77.4 μg/mg cellular proteins; in series [7] (MCF7/6 cells, 6 hours of incubation, 10 μg eq. DNR/ml), 14.9 μg/mg cellular proteins. Also, the maximum accumulation in series [7] (MCF7/6 cells, 10 μg/ml, after 6 hours of incubation) was ~15 μg/mg of cellular proteins. Further, the “ratio of the intracellular DNR levels (MCF7/6 to MRC5)” value in series [7] (cells incubated in the presence of the compound) worked out at 0.19.
`COc1cccc2c1C(=O)c1c(O)c3c(c(O)c1C2=O)C[C@@](O)(C(=O)CO)C[C@@H]3O[C@H]1C[C@H](N)[C@H](O)[C@H](C)O1` [DOX, doxorubicin]: the IC50 in the series with MRC5 fibroblast cells [3] (MRC5, 72 h, read-out: IC50 (72 h)) amounted to 0.018 µg/mL (≈ 0.0331 µM); in series [5] (MCF7/6, 72 h, read-out: IC50 (72 h)), 0.0025 µg/mL (≈ 0.0046 µM). Also, the “Accumulation after 6 h, DOX” value with MRC5 fibroblast cells [6] (MRC5 cells) was 11.20 μg/mg cellular prot; in series [7] (MCF7/6 cells, 10 μg eq. DOX/ml), 6.9 μg/mg cellular prot. and 6.90 μg/mg cellular prot. The “intracellular levels of the active therapeutic agent in normal cells compared with tumor cells” value in the series with MRC5 fibroblast cells [6] (MRC5 versus MCF7/6, 6 h incubation) is listed as “twice as high”.
On to `COc1cccc2c1C(=O)c1c(O)c3c(c(O)c1C2=O)CC(O)(C(C)=O)CC3OC1CC(NC(=O)C(CC(C)C)NC(=O)CNC(=O)C(CC(C)C)NC(=O)CN)C(O)C(C)O1` [Gly-L-Leu-Gly-L-Leu-DNR], for which the “Hydrolysis, MCF-7/6 Conditioned Medium” value in series [1] is on record as “+”.
On to `COc1cccc2c1C(=O)c1c(O)c3c(c(O)c1C2=O)CC(O)(C(=O)CO)CC3OC1CC(NC(=O)C(CC(C)C)NC(=O)C(C)N)C(O)C(C)O1` [L-Ala-L-Leu-DOX], for which, in series [8], the “Starting material or Metabolite, After 2 hours” value was below 1% and the “Starting material or Metabolite, Time 0” value turned out to be 0%.
Consider `COc1cccc2c1C(=O)c1c(O)c3c(c(O)c1C2=O)CC(O)(C(C)=O)CC3OC1CC(NC(=O)C(CC(C)C)NC(=O)C(C)NC(=O)C(CC(C)C)NC(=O)C(C)N)C(O)C(C)O1` [L-Ala-L-Leu-L-Ala-L-Leu-DNR], for which the “Hydrolysis, MCF-7/6 Conditioned Medium” value in series [1] is recorded as “+”.
As to `COc1cccc2c1C(=O)c1c(O)c3c(c(O)c1C2=O)C[C@@](O)(C(=O)CO)C[C@@H]3O[C@H]1C[C@H](NC(=O)[C@@H](N)CC(C)C)[C@H](O)[C@H](C)O1` [L-Leu-DOX, N-L-leucyldoxorubicin], the “IC50 (72 h)” value came to 0.30 µg/mL (≈ 0.457 µM) in the series on MRC5 fibroblast cells [3] (MRC5 cells) and 0.020 µg/mL (≈ 0.0305 µM) in series [5] (MCF7/6 cells). In addition, the “times less cytotoxic than DOX” value stood at 17 times in the series with MRC5 fibroblast cells [3] (MRC5 cells, 72 hours) and 8 times in series [5] (MCF7/6 cells, 72 hours). In addition, the “Accumulation after 6 h, DOX” value with MRC5 fibroblast cells [6] (MRC5 cells) amounted to 0.3 μg/mg cellular prot; in the series on MRC5 fibroblast cells [6] (MRC5 cells, listed as Leu-DOX), 0.30 μg/mg cellular prot; in series [7] (MCF7/6 cells, 10 μg eq. DOX/ml) it was 0.25 μg/mg cellular prot. The “Accumulation after 6 h, Leu-DOX” value with MRC5 fibroblast cells [6] (MRC5 cells) is 1.4 μg/mg cellular prot; with MRC5 fibroblast cells [6] (MRC5 cells, listed as Leu-DOX), 1.40 μg/mg cellular prot; in series [7] (MCF7/6 cells, 10 μg eq. DOX/ml), 1.10 μg/mg cellular prot. Further, the “accumulation, times less than DOX” value in series [7] (MCF7/6 cells, after 6 hours) is on record as 6 times. For the same compound, the “Starting material or Metabolite, After 2 hours” value in series [8] is recorded as 68%. Further, in series [8], the “Starting material or Metabolite, Time 0” value was 0%.
With `COc1cccc2c1C(=O)c1c(O)c3c(c(O)c1C2=O)C[C@@](O)(C(=O)CO)C[C@@H]3O[C@H]1C[C@H](NC(=O)[C@H](CC(C)C)NC(=O)[C@H](C)NC(=O)[C@@H](N)CC(C)C)[C@H](O)[C@H](C)O1` [L-Leu-L-Ala-L-Leu-DOX], in series [8], the “Starting material or Metabolite, After 2 hours” value is listed as below 1% and the “Starting material or Metabolite, Time 0” value was 0%.
Take `COc1cccc2c1C(=O)c1c(O)c3c(c(O)c1C2=O)CC(O)(C(C)=O)CC3OC1CC(NC(=O)C(CC(C)C)NC(=O)C(C)NC(=O)C(CC(C)C)NC(=O)C(C)NC(=O)CCC(=O)O)C(O)C(C)O1` [Succ-L-Ala-L-Leu-L-Ala-L-Leu-DNR]: in series [1], the “Hydrolysis, MCF-7/6 Conditioned Medium” value is reported as “−”.
With `COc1cccc2c1C(=O)c1c(O)c3c(c(O)c1C2=O)CC(O)(C(=O)CO)CC3OC1CC(NC(=O)C(CC(C)C)NC(=O)C(C)NC(=O)C(CC(C)C)NC(=O)C(C)NC(=O)C2CCC(=O)N2)C(O)C(C)O1` [pGlu-L-Ala-L-Leu-L-Ala-L-Leu-DOX] ([pGlu]ALAL-X1; configuration not given here), the “Hydrolysis, MCF-7/6 Conditioned Medium” value in series [1] is on record as “−”.
Regarding β-Ala-L-Leu-L-Ala-L-Leu-COU, in series [1], the “Hydrolysis, MCF-7/6 Conditioned Medium” value is on record as “+”.
